# What was measured:
# ABUTH = assay: greenhouse post-emergence herbicidal test; format: in vivo, Abutilon theophrasti; details: post-emergence method, application rate 500 g/ha, scale from 0 to 100
# Source text: (§1) The culture containers used were plastic flowerpots containing loamy sand with approximately 3.0% of humus as the substrate. The seeds of the test plants were sown separately for each species.
# (§2) For the post-emergence treatment, the test plants were first grown to a height of 3 to 15 cm, depending on the plant habit, and only then treated with the active ingredients which had been suspended or emulsified in water. For this purpose, the test plants were either sown directly and grown in the same containers, or they were first grown separately as seedlings and transplanted into the test containers a few days prior to treatment.
# (§3) Depending on the species, the plants were kept at 10-25° C. or 20-35° C., respectively. The test period extended over 2 to 4 weeks. During this time, the plants were tended, and their response to the individual treatments was evaluated.
# (§4) Evaluation was carried out using a scale from 0 to 100. 100 means no emergence of the plants, or complete destruction of at least the aerial moieties, and 0 means no damage, or normal course of growth. A good herbicidal activity is given at values of at least 80 and a very good herbicidal activity is given at values of at least 90.
# (§5) The plants used in the greenhouse experiments were of the following species: […]
# SETVI = assay: greenhouse post-emergence herbicidal test; format: in vivo, Setaria viridis; details: application rate 500 g/ha, scale from 0 to 100; for herbicidal activity against SETVI: post-emergence method; for damages, unwanted plants SETVI: post-emergence application, greenhouse
# Source text: as §1, §2, §3, §4, §5
# AVEFA = assay: greenhouse post-emergence herbicidal test; format: in vivo, Avena fatua; details: application rate 500 g/ha, scale from 0 to 100; for damages, unwanted plants AVEFA: post-emergence application, greenhouse
# Source text: as §1, §2, §3, §4, §5
# ECHCG = assay: greenhouse post-emergence herbicidal test; format: in vivo, Echinocloa crus-galli; details: post-emergence method, application rate 500 g/ha, scale from 0 to 100
# Source text: as §1, §2, §3, §4, §5
# AMARE [1] = assay: greenhouse post-emergence herbicidal test; format: in vivo, Amaranthus retroflexus; details: post-emergence method, application rate 500 g/ha, scale from 0 to 100
# Source text: as §1, §2, §3, §4, §5
# SEBEX = assay: greenhouse post-emergence herbicidal test; format: in vivo, Sesbania exaltata; details: post-emergence application, application rate 8 g/ha, scale from 0 to 100
# Source text: as §1, §2, §3, §4, §5
# ALOMY = assay: greenhouse post-emergence herbicidal test; format: in vivo, Alopercurus myosuroides; details: post-emergence application, application rate 500 g/ha, scale from 0 to 100
# Source text: as §1, §2, §3, §4, §5
# RAPRA = assay: greenhouse post-emergence herbicidal test; format: in vivo, Raphanus raphanistrum; details: post-emergence application, application rate 8 g/ha, scale from 0 to 100
# Source text: as §1, §2, §3, §4, §5
# CHEAL = assay: greenhouse post-emergence herbicidal test; format: in vivo, Chenopodium album; details: post-emergence application, application rate 8 g/ha, scale from 0 to 100
# Source text: as §1, §2, §3, §4, §5
# SETFA = assay: greenhouse pre-emergence herbicidal test; format: in vivo, Setaria faberi; details: pre-emergence method, application rate 500 g/ha, scale from 0 to 100
# Source text: as §1
# (§6) For the pre-emergence treatment, the active ingredients, which had been suspended or emulsified in water, were applied directly after sowing by means of finely distributing nozzles. The containers were irrigated gently to promote germination and growth and subsequently covered with transparent plastic hoods until the plants had rooted. This cover caused uniform germination of the test plants, unless this had been impaired by the active ingredients.
# as §3, §4, §5
# AMARE [2] = assay: greenhouse pre-emergence herbicidal test; format: in vivo, Amaranthus retroflexus; details: pre-emergence method, application rate 500 g/ha, scale from 0 to 100
# Source text: as §1, §6, §3, §4, §5
structure (smiles),measurement,setting,value
CC(=CC(=O)N1CCSC1=O)CC1OCC(CC2OC2C(C)C(C)O)C2OC(C)(C)OC12 (stereo not shown) [compound 39],herbicidal activity against ABUTH,ABUTH,very good herbicidal activity (a very good herbicidal activity is given at values of at least 90)
same,herbicidal activity against SETVI,SETVI,very good herbicidal activity (a very good herbicidal activity is given at values of at least 90)
CC(=O)[C@H](C)[C@@H]1O[C@H]1C[C@H]1CO[C@@H](C/C(C)=C/C(=O)NCC(F)(F)F)[C@H](O)[C@@H]1O [compound 43],herbicidal activity against ABUTH,ABUTH,very good herbicidal activity (a very good herbicidal activity is given at values of at least 90)
same,herbicidal activity against SETVI,SETVI,very good herbicidal activity (a very good herbicidal activity is given at values of at least 90)
same,herbicidal activity against AVEFA,AVEFA; post-emergence method,very good herbicidal activity (a very good herbicidal activity is given at values of at least 90)
C/C(=C\C(=O)NCC(F)(F)C(F)(F)C(F)(F)F)C[C@@H]1OC[C@H](C[C@@H]2O[C@H]2[C@@H](C)[C@H](C)O)[C@@H](O)[C@H]1O [compound 9],herbicidal activity against ECHCG,ECHCG,good herbicidal activity (A good herbicidal activity is given at values of at least 80)
same,herbicidal activity against SETVI,SETVI,very good herbicidal activity (a very good herbicidal activity is given at values of at least 90)
same,herbicidal activity against AMARE,AMARE [1],very good herbicidal activity (a very good herbicidal activity is given at values of at least 90)
"C#CCNC(=O)/C=C(\C)C[C@@H]1OC[C@H](C[C@@H]2O[C@H]2[C@@H](C)[C@H](C)O)[C@@H](O)[C@H]1O [compound 26, (E)-4-[(2S,3R,4R,5S)-3,4-dihydroxy-5-[[(2S,3S)-3-[(1S,2S)-2-hydroxy-1-methyl-propyl]oxiran-2-yl]methyl]tetrahydropyran-2-yl]-3-methyl-N-prop-2-ynyl-but-2-enamide]","damages, unwanted plants SEBEX",SEBEX,100
same,"damages, unwanted plants ALOMY",ALOMY,95
same,"damages, unwanted plants SETVI",SETVI,100
same,"damages, unwanted plants AVEFA",AVEFA,98
same,"damages, unwanted plants RAPRA",RAPRA,100
same,"damages, unwanted plants CHEAL",CHEAL,100
C/C(=C\C(=O)NCCF)C[C@@H]1OC[C@H](C[C@@H]2O[C@H]2[C@@H](C)[C@H](C)O)[C@@H](O)[C@H]1O [compound 1],"damages, unwanted plants ALOMY",ALOMY,100
same,"damages, unwanted plants SETVI",SETVI,100
same,"damages, unwanted plants RAPRA",RAPRA,100
same,"damages, unwanted plants CHEAL",CHEAL,100
C/C(=C\C(=O)NCC#CC(C)(C)C)C[C@@H]1OC[C@H](C[C@@H]2O[C@H]2[C@@H](C)[C@H](C)O)[C@@H](O)[C@H]1O [compound 29],herbicidal activity against SETFA,SETFA,good herbicidal activity (A good herbicidal activity is given at values of at least 80)
"C/C(=C\C(=O)NCCO)C[C@@H]1OC[C@H](C[C@@H]2O[C@H]2[C@@H](C)[C@H](C)O)[C@@H](O)[C@H]1O [cmpd 77 (WO 93/19599), reference compound]","damages, unwanted plants SEBEX",SEBEX,65
same,"damages, unwanted plants ALOMY",ALOMY,70
same,"damages, unwanted plants SETVI",SETVI,85
same,"damages, unwanted plants AVEFA",AVEFA,50
same,"damages, unwanted plants RAPRA",RAPRA,85
same,"damages, unwanted plants CHEAL",CHEAL,75
CCOC1OC2C(CC3OC3C(C)C(C)O)COC(CC(C)=CC(=O)NCC(F)(F)F)C2O1 (mixture of isomers) [compound 20],herbicidal activity against ECHCG,ECHCG,very good herbicidal activity (a very good herbicidal activity is given at values of at least 90)
same,herbicidal activity against ABUTH,ABUTH,very good herbicidal activity (a very good herbicidal activity is given at values of at least 90)
same,herbicidal activity against AMARE,AMARE [1],very good herbicidal activity (a very good herbicidal activity is given at values of at least 90)
C#CCNC(=O)C=C(C)CC1OCC(CC2OC2C(C)C(C)O)C2OC(OCC)OC12 (stereo not shown) [compound 33],herbicidal activity against AMARE,AMARE [2],good herbicidal activity (A good herbicidal activity is given at values of at least 80)
C/C(=C\C(=O)N1CCSC1=O)C[C@@H]1OC[C@H](C[C@@H]2O[C@H]2[C@@H](C)[C@H](C)O)[C@@H](O)[C@H]1O [compound 37],herbicidal activity against ECHCG,ECHCG,good herbicidal activity (A good herbicidal activity is given at values of at least 80)
same,herbicidal activity against ABUTH,ABUTH,very good herbicidal activity (a very good herbicidal activity is given at values of at least 90)
same,herbicidal activity against SETVI,SETVI,very good herbicidal activity (a very good herbicidal activity is given at values of at least 90)
same,herbicidal activity against AMARE,AMARE [1],good herbicidal activity (A good herbicidal activity is given at values of at least 80)
CC(=CC(=O)NCC(F)(F)C(F)(F)C(F)(F)F)CC1OCC(CC2OC2C(C)C(C)O)C2OC(C)(C)OC12 (stereo not shown) [compound 19],herbicidal activity against AMARE,AMARE [1],very good herbicidal activity (a very good herbicidal activity is given at values of at least 90)

# Reference: US20220251074A1, “HERBICIDAL AMIDES” (BASF SE, priority 2019, published 2022)
